{"source": "patent US20210267194A1", "about": "“SEED TREATMENT METHOD” (priority 2018, published 2021)", "key": {"[1]": {"conditions": "footnote a: Chemistry Dashboard of the US Environmental Protection Agency; cited from earlier work"}, "[2]": {"assay": "Density of the active ingredient (Table 1)", "type": "physicochemical"}, "[3]": {"conditions": "footnote a: Chemistry Dashboard of the US Environmental Protection Agency; cited from earlier work", "remark": "listed apart in the source"}, "[4]": {"assay": "Solubility in water of the active ingredient (Table 1)", "conditions": "for solubility: water"}, "physchem": {"assay": "physchem", "conditions": "water"}}, "note": "Where two headings read alike, the source gives them in different places."}
{"molecule": "Fc1ccc([C@]2(Cn3cncn3)O[C@H]2c2ccccc2Cl)cc1", "note": "(racemic) [Epoxiconazole]", "values": [{"measurement": "Density", "setting": "[1]", "result": "1.42^a g/mL"}]}
{"molecule": "Cc1c(F)c(F)c(COC(=O)[C@@H]2[C@H](/C=C(\\Cl)C(F)(F)F)C2(C)C)c(F)c1F", "note": "(racemic) [Tefluthrin]", "values": [{"measurement": "Density", "setting": "[2]", "result": 1.48, "unit": "g/mL"}]}
{"molecule": "CO/C=C(/C(=O)OC)c1ccccc1Oc1cc(Oc2ccccc2C#N)ncn1", "note": "[Azoxystrobin]", "values": [{"measurement": "Density", "setting": "[1]", "result": "1.34^a g/mL"}, {"measurement": "Solubility in Water", "setting": "[3]", "result": "6.01^a mg/L"}]}
{"molecule": "CC1(C)C(C=C(Cl)Cl)C1C(=O)OC(C#N)c1ccc(F)c(Oc2ccccc2)c1", "note": "(stereo not drawn) [Beta-Cyfluthrin]", "values": [{"measurement": "Solubility in Water", "setting": "[4]", "result": 0.0012, "unit": "µg/mL"}, {"measurement": "Density", "setting": "[2]", "result": 1.35, "unit": "g/mL"}]}
{"molecule": "COC(=O)Nc1nc2ccccc2[nH]1", "note": "[Carbendazim]", "values": [{"measurement": "Density", "setting": "[1]", "result": "1.39^a g/mL"}, {"measurement": "solubility", "setting": "physchem", "result": 8, "unit": "µg/mL"}, {"measurement": "Density", "setting": "[2]", "result": 1.45, "unit": "g/mL"}]}
{"molecule": "CNC(=O)c1cc(Cl)cc(C)c1NC(=O)c1cc(Br)nn1-c1ncccc1Cl", "note": "[Chlorantraniliprole]", "values": [{"measurement": "Density", "setting": "[1]", "result": "1.65^a g/mL"}]}
{"molecule": "CN/C(=N\\[N+](=O)[O-])NCc1cnc(Cl)s1", "note": "[Clothianidin]", "values": [{"measurement": "solubility", "setting": "[4]", "result": 340, "unit": "µg/mL"}, {"measurement": "Density", "setting": "[2]", "result": 1.61, "unit": "g/mL"}]}
{"molecule": "CNC(=O)c1cc(C#N)cc(C)c1NC(=O)c1cc(Br)nn1-c1ncccc1Cl", "note": "[Cyantraniliprole]", "values": [{"measurement": "Density", "setting": "[1]", "result": "1.65^a g/mL"}]}
{"molecule": "CC(C1CC1)C(O)(Cn1cncn1)c1ccc(Cl)cc1", "note": "(stereo not drawn) [Cyproconazole]", "values": [{"measurement": "Density", "setting": "[1]", "result": "1.31^a g/mL"}]}
{"molecule": "CC[S+]([O-])c1c(C#N)nn(-c2c(Cl)cc(C(F)(F)F)cc2Cl)c1N", "note": "(stereo not drawn) [Ethiprole]", "values": [{"measurement": "Density", "setting": "[2]", "result": 1.69, "unit": "g/mL"}]}
{"molecule": "CSC1=N[C@@](C)(c2ccccc2)C(=O)N1Nc1ccccc1", "note": "[Fenamidone]", "values": [{"measurement": "solubility", "setting": "physchem", "result": 7.8, "unit": "µg/mL"}, {"measurement": "Density", "setting": "[2]", "result": 1.29, "unit": "g/mL"}]}
{"molecule": "N#Cc1nn(-c2c(Cl)cc(C(F)(F)F)cc2Cl)c(N)c1[S+]([O-])C(F)(F)F", "note": "(stereo not drawn) [Fipronil]", "values": [{"measurement": "solubility", "setting": "physchem", "result": 3.78, "unit": "µg/mL"}, {"measurement": "Density", "setting": "[2]", "result": 1.71, "unit": "g/mL"}]}
{"molecule": "O=[N+]([O-])c1cc(C(F)(F)F)c(Cl)c([N+](=O)[O-])c1Nc1ncc(C(F)(F)F)cc1Cl", "note": "[Fluazinam]", "values": [{"measurement": "Density", "setting": "[1]", "result": "1.80^a g/mL"}, {"measurement": "Solubility in Water", "setting": "[3]", "result": "0.68^a mg/L"}]}
{"molecule": "Cc1cc(C(F)(C(F)(F)F)C(F)(F)F)ccc1NC(=O)c1cccc(I)c1C(=O)NC(C)(C)CS(C)(=O)=O", "note": "[Flubendiamide]", "values": [{"measurement": "Density", "setting": "[1]", "result": "1.78^a g/mL"}]}
{"molecule": "N#Cc1c[nH]cc1-c1cccc2c1OC(F)(F)O2", "note": "[Fludioxinil]", "values": [{"measurement": "Solubility in Water", "setting": "[4]", "result": 1.8, "unit": "µg/mL"}, {"measurement": "Density", "setting": "[2]", "result": 1.54, "unit": "g/mL"}]}
{"molecule": "O=C(NCCc1ncc(C(F)(F)F)cc1Cl)c1ccccc1C(F)(F)F", "note": "[Fluopyram]", "values": [{"measurement": "solubility", "setting": "[4]", "result": 16, "unit": "µg/mL"}, {"measurement": "Density", "setting": "[2]", "result": 1.53, "unit": "g/mL"}]}
{"molecule": "CO/N=C(/C1=NOCCO1)c1ccccc1Oc1ncnc(Oc2ccccc2Cl)c1F", "note": "[Fluoxastrobin]", "values": [{"measurement": "solubility", "setting": "[4]", "result": 2.29, "unit": "µg/mL"}, {"measurement": "Density", "setting": "[2]", "result": 1.42, "unit": "g/mL"}]}
{"molecule": "O=C1C=C(N(Cc2ccc(Cl)nc2)CC(F)F)CO1", "note": "[Flupyradifurone]", "values": [{"measurement": "Solubility in Water", "setting": "[4]", "result": 3200, "unit": "µg/mL"}, {"measurement": "Density", "setting": "[2]", "result": 1.43, "unit": "g/mL"}]}
{"molecule": "O=c1c2cc(F)ccc2nc(-n2cncn2)n1-c1ccc(Cl)cc1Cl", "note": "[Fluquinconazole]", "values": [{"measurement": "Density", "setting": "[2]", "result": 1.58, "unit": "g/mL"}]}
{"molecule": "O=[N+]([O-])NC1=NCCN1Cc1ccc(Cl)nc1", "note": "[Imidacloprid]", "values": [{"measurement": "Solubility in Water", "setting": "[4]", "result": 610, "unit": "µg/mL"}, {"measurement": "Density", "setting": "[2]", "result": 1.54, "unit": "g/mL"}]}
{"molecule": "CC(C)C1CCC(Cc2ccc(Cl)cc2)C1(O)Cn1cncn1", "note": "(stereo not drawn) [Ipconazole]", "values": [{"measurement": "solubility", "setting": "physchem", "result": 9.34, "unit": "µg/mL"}, {"measurement": "Density", "setting": "[2]", "result": 1.2, "unit": "g/mL"}]}
{"molecule": "CC(C)NC(=O)N1CC(=O)N(c2cc(Cl)cc(Cl)c2)C1=O", "note": "[Iprodione]", "values": [{"measurement": "solubility", "setting": "physchem", "result": 6.8, "unit": "µg/mL"}, {"measurement": "Density", "setting": "[2]", "result": 1, "unit": "g/mL"}]}
{"molecule": "N#Cc1ccccc1NC(=O)c1snc(Cl)c1Cl", "note": "[Isotianil]", "values": [{"measurement": "Solubility in Water", "setting": "[4]", "result": 0.5, "unit": "µg/mL"}, {"measurement": "Density", "setting": "[1]", "result": "1.56^a g/mL"}]}
{"molecule": "COCC(=O)N(c1c(C)cccc1C)[C@H](C)C(=O)OC", "note": "[Metalaxyl-M]", "values": [{"measurement": "Density", "setting": "[1]", "result": "1.09^a g/mL"}]}
{"molecule": "COCC(=O)N(c1c(C)cccc1C)C(C)C(=O)OC", "note": "(stereo not drawn) [Metalaxyl]", "values": [{"measurement": "solubility", "setting": "[4]", "result": 8400, "unit": "µg/mL"}, {"measurement": "Density", "setting": "[2]", "result": 1.2, "unit": "g/mL"}]}
{"molecule": "CNC(=O)Oc1cc(C)c(SC)c(C)c1", "note": "[Methiocarb]", "values": [{"measurement": "solubility", "setting": "[4]", "result": 27, "unit": "µg/mL"}, {"measurement": "Density", "setting": "[2]", "result": 1.25, "unit": "g/mL"}]}
{"molecule": "CNC(=O)/C(=N/OC)c1ccccc1Oc1ccccc1", "note": "[Metominostrobin]", "values": [{"measurement": "Density", "setting": "[1]", "result": "1.13^a g/mL"}]}
{"molecule": "O=C(Nc1ccccc1)N(Cc1ccc(Cl)cc1)C1CCCC1", "note": "[Pencycuron]", "values": [{"measurement": "Solubility in Water", "setting": "[4]", "result": 0.3, "unit": "µg/mL"}, {"measurement": "Density", "setting": "[2]", "result": 1.22, "unit": "g/mL"}]}
{"molecule": "Cc1nn(C)c(F)c1C(=O)Nc1ccccc1C(C)CC(C)C", "note": "(stereo not drawn) [Penflufen]", "values": [{"measurement": "Solubility in Water", "setting": "[4]", "result": 10.9, "unit": "µg/mL"}, {"measurement": "Density", "setting": "[1]", "result": "1.18^a g/mL"}]}
{"molecule": "CO/C=C(/C(=O)OC)c1ccccc1COc1cccc(C(F)(F)F)n1", "note": "[Picoxystrobin]", "values": [{"measurement": "Density", "setting": "[1]", "result": "1.28^a g/mL"}, {"measurement": "Solubility in Water", "setting": "[3]", "result": "8.30^a mg/L"}]}
{"molecule": "CC12CC1(C)C(=O)N(c1cc(Cl)cc(Cl)c1)C2=O", "note": "(stereo not drawn) [Procymidone]", "values": [{"measurement": "Density", "setting": "[1]", "result": "1.43^a g/mL"}]}
{"molecule": "CCCC1COC(Cn2cncn2)(c2ccc(Cl)cc2Cl)O1", "note": "(stereo not drawn) [Propiconazole]", "values": [{"measurement": "Density", "setting": "[1]", "result": "1.39^a g/mL"}]}
{"molecule": "OC(Cc1ccccc1Cl)(Cn1nc[nH]c1=S)C1(Cl)CC1", "note": "(stereo not drawn) [Prothioconazole]", "values": [{"measurement": "solubility", "setting": "[4]", "result": 300, "unit": "µg/mL"}, {"measurement": "Density", "setting": "[2]", "result": 1.36, "unit": "g/mL"}]}
{"molecule": "COC(=O)N(OC)c1ccccc1COc1ccn(-c2ccc(Cl)cc2)n1", "note": "[Pyraclostrobin]", "values": [{"measurement": "Density", "setting": "[1]", "result": "1.34^a g/mL"}, {"measurement": "Solubility in Water", "setting": "[3]", "result": "26.0^a mg/L"}]}
{"molecule": "CC(c1ccc(C(F)(F)F)nc1)S(C)(=O)=NC#N", "note": "(stereo not drawn) [Sulfoxaflor]", "values": [{"measurement": "Density", "setting": "[1]", "result": "1.34^a g/mL"}]}
{"molecule": "CC(C)(C)C(O)(CCc1ccc(Cl)cc1)Cn1cncn1", "note": "(stereo not drawn) [Tebuconazole]", "values": [{"measurement": "Density", "setting": "[2]", "result": 1.25, "unit": "g/mL"}]}
{"molecule": "N#C/N=C1\\SCCN1Cc1ccc(Cl)nc1", "note": "[Thiacloprid]", "values": [{"measurement": "solubility", "setting": "[4]", "result": 184, "unit": "µg/mL"}, {"measurement": "Density", "setting": "[2]", "result": 1.46, "unit": "g/mL"}]}
{"molecule": "CN1COCN(Cc2cnc(Cl)s2)/C1=N\\[N+](=O)[O-]", "note": "[Thiamethoxam]", "values": [{"measurement": "Density", "setting": "[1]", "result": "1.76^a g/mL"}, {"measurement": "Solubility in Water", "setting": "[3]", "result": "1278^a mg/L"}]}
{"molecule": "CS/C(C)=N\\OC(=O)N(C)SN(C)C(=O)O/N=C(\\C)SC", "note": "[Thiodicarb]", "values": [{"measurement": "solubility", "setting": "[4]", "result": 22.2, "unit": "µg/mL"}, {"measurement": "Density", "setting": "[2]", "result": 1.47, "unit": "g/mL"}]}
{"molecule": "CC(C)(C)C(O)C(Oc1ccc(Cl)cc1)n1cncn1", "note": "(stereo not drawn) [Triadimenol]", "values": [{"measurement": "solubility", "setting": "physchem", "result": 72, "unit": "µg/mL"}, {"measurement": "Density", "setting": "[2]", "result": 1.27, "unit": "g/mL"}]}
{"molecule": "CON=C(C(=O)OC)c1ccccc1CON=C(C)c1cccc(C(F)(F)F)c1", "note": "[Trifloxystrobin]", "values": [{"measurement": "solubility", "setting": "physchem", "result": 0.61, "unit": "µg/mL"}, {"measurement": "Density", "setting": "[2]", "result": 1.36, "unit": "g/mL"}]}
{"molecule": "Abamectin", "values": [{"measurement": "Density", "setting": "[1]", "result": "1.28^a g/mL"}, {"measurement": "Solubility in Water", "setting": "[3]", "result": "36.4^a mg/L"}]}
{"molecule": "Spinetoram", "values": [{"measurement": "Density", "setting": "[1]", "result": "1.18^a g/mL"}, {"measurement": "Solubility in Water", "setting": "[3]", "result": "162^a mg/L"}]}
{"molecule": "Spinosad", "values": [{"measurement": "Density", "setting": "[1]", "result": "1.20^a g/mL"}, {"measurement": "Solubility in Water", "setting": "[3]", "result": "295^a mg/L"}]}
